Values of other authors in patent US5545620A, “Synthetic fibronectin fragments as inhibitors of retroviral infection” (priority 1994, dated 1996).

Test system: cell adhesion
Conditions: cited from earlier work
In the case of “FN-6: fibronectin fragment (1961-1985) SEQ ID NO. 6, restricted to isoforms containing the type IIIcs region (DELPQLVTLPHPNLHGPEILDVPST)”, the “promotion of cell adhesion” value is given as “promotes cell adhesion by an α4β1 integrin-dependent mechanism”.
In the case of KNNQKSEPLIGRKKT [FN-2], the “promotion of cell adhesion” value is given as “promote cell adhesion”.
For “YEKPGSPPREWPRPRPGV (YEKPGSPPREVVPRPRPGV) [FN-1]”, the “promotion of cell adhesion” value is listed as “promote cell adhesion”.
